The test deals with T1, NKCC1 (Homo sapiens, UniProt P55011).
T1 construct: endogenous in cells; host or cells: native HEK293 cells
T1 sequence (P55011 1-1212): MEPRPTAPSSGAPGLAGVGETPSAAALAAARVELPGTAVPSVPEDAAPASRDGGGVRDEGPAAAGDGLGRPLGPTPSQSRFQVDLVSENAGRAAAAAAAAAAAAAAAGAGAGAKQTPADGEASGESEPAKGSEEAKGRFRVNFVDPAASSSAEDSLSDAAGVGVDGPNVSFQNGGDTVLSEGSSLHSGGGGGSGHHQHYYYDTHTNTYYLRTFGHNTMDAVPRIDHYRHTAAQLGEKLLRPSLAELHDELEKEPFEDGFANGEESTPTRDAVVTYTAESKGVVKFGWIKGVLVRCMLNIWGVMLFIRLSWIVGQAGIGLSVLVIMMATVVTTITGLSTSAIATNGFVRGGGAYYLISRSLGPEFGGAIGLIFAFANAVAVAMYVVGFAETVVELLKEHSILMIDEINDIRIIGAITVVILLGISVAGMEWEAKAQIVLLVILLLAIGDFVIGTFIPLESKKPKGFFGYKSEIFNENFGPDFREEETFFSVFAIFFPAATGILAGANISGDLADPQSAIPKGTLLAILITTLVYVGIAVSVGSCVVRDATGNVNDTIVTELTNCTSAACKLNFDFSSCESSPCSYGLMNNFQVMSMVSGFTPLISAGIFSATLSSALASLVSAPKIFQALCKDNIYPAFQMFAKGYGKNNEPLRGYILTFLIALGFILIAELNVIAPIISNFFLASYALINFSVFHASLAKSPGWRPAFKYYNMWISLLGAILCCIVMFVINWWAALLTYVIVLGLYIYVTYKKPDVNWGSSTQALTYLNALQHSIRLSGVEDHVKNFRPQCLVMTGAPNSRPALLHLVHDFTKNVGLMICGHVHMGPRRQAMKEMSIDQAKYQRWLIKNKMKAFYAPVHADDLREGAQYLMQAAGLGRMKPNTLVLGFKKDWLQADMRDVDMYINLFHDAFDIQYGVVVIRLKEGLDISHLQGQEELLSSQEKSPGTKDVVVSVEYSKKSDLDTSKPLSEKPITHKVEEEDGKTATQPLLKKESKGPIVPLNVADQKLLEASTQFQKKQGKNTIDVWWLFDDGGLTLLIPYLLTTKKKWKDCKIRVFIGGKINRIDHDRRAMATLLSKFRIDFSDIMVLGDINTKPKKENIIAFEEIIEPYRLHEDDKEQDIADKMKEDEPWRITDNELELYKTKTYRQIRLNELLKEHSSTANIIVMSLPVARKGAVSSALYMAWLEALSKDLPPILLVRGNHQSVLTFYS
The test is described as follows: NKCC1-mediated K+ influx (83Rb tracer uptake) in native HEK293 cells, hypertonic saline, 100 μM ouabain. It is filed as cell-based. The method, boiled down:
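Native cells in slightly hypertonic saline with 100 μM ouabain; 15 min preincubation then 15 min 83Rb uptake (0.25 μCi/mL), scintillation counting normalized to protein. Compounds at 2 μM and 20 μM; flux scaled 1000 (no drug) to 0 (20 μM bumetanide), triplicate dishes.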

Where [1] appears, read: HEK293, no drug = 1000, 20 μM bumetanide = 0, read-out: NKCC1 mediated flux inhibition at 2 μM (%).
Setting [2] is: HEK293, 20 μM, no drug = 1000, 20 μM bumetanide = 0, read-out: NKCC1 mediated flux inhibition at 20 μM (%).

Read-outs that look alike come from different tables or passages of the source.

As for `CCCCNc1cc(C(=O)O)cc(S(=N)(=O)Nc2cccc(OC)c2)c1Oc1ccccc1` (stereo not drawn) [Compound 65, 3-(butylamino)-5-[(3-methoxyanilino)sulfonimidoyl]-4-phenoxy-benzoic acid], under setting [1], the inhibition (usually the drop in the measured response relative to a control, in per cent) at 2 µM is 50 to 75%. For the same molecule, the inhibition at 20 µM under setting [2] is ≥ 75%.
For the molecule `CCCCNc1cc(C(=O)O)cc(S(=N)(=O)Nc2nccn2C)c1Oc1ccccc1` (stereo not drawn) [Compound 88, 3-(butylamino)-5-[[(1-methylimidazol-2-yl)amino]sulfonimidoyl]-4-phenoxy-benzoic acid], under setting [2], the inhibition at 20 µM lay within 50 to 75%.
Regarding `CCCCNc1cc(C(=O)NCC2CC2)cc(S(=N)(=O)Nc2ccccc2)c1Oc1ccccc1` (stereo not drawn) [Compound 107, 3-(anilinosulfonimidoyl)-5-(butylamino)-N-(cyclopropylmethyl)-4-phenoxy-benzamide], the inhibition at 20 µM under setting [2] is 10 to 30%.
With `CCCCNc1cc(C(=O)O)cc(S(N)(=O)=O)c1Oc1ccccc1` [Ref 1, bumetanide, reference compound], the inhibition at 2 µM (native HEK293, read-out: Percent inhibition of drugs on NKCC1, 2 uM) is 87%. For the same molecule, where the note is “20 μM, native HEK293, read-out: Percent inhibition of drugs on NKCC1, 20 uM”, the inhibition at 20 µM amounted to 100%. The “K+ influx in the presence of compound” value (20 μM, native HEK293 without compound 7000-9000) is given as 600-900 pmoles K+ per mg protein per m.
For `CCCCNc1cc(C(=O)OC)cc(S(=N)(=O)Nc2ccc(Cl)cc2)c1Oc1ccccc1` (stereo not drawn) [Compound 27, methyl 3-(butylamino)-5-[(4-chloroanilino)sulfonimidoyl]-4-phenoxy-benzoate], the inhibition at 20 µM under setting [2] lay in the range of 10 to 30%.
Regarding `CCCCNc1cc(C(=O)OC)cc(S(=N)(=O)Nc2nccs2)c1Oc1ccccc1` (stereo not drawn) [Compound 43, methyl 3-(butylamino)-4-phenoxy-5-[(thiazol-2-ylamino)sulfonimidoyl]benzoate], under setting [1], the inhibition at 2 µM was 30 to 50%. Besides, the inhibition at 20 µM under setting [2] was 10 to 30%.
For the molecule `CCCCNc1cc(C(=O)O)cc(S(=N)(=O)N2CCCC2)c1Oc1ccccc1` (stereo not drawn) [Compound 53, 3-(butylamino)-4-phenoxy-5-(pyrrolidin-1-ylsulfonimidoyl)benzoic acid], under setting [1], the inhibition at 2 µM lay in the range of 30 to 50%. Moreover, the inhibition at 20 µM under setting [2] was ≥ 75%.
Taken in the same sequence, the figures for `CCCCNc1cc(C(=O)OC)cc(S(=N)(=O)Nc2ccnnc2)c1Oc1ccccc1` (stereo not drawn) [Compound 45, methyl 3-(butylamino)-4-phenoxy-5-[(pyridazin-4-ylamino)sulfonimidoyl]benzoate] were 30 to 50% and 30 to 50%.
In the case of `CCCCNc1cc(C(=O)OC)cc(S(=N)(=O)NCc2cccc(Cl)c2)c1Oc1ccccc1` (stereo not drawn) [Compound 23, methyl 3-(butylamino)-5-[[(3-chlorophenyl)methylamino]sulfonimidoyl]-4-phenoxy-benzoate], the inhibition at 2 µM under setting [1] lay within 30 to 50%. For the same molecule, under setting [2], the inhibition at 20 µM lay within 10 to 30%.
Regarding `CCCCNc1cc(C(=O)O)cc(S(=N)(=O)Nc2ccccn2)c1Oc1ccccc1` (stereo not drawn) [Compound 89, 3-(butylamino)-4-phenoxy-5-[(2-pyridylamino)sulfonimidoyl]benzoic acid], the inhibition at 2 µM under setting [1] was in the range of 30 to 50%. Also, the inhibition at 20 µM under setting [2] is ≥ 75%.
Take `CCCCNc1cc(C(=O)O)cc(S(=N)(=O)NC2CCOCC2)c1Oc1ccccc1` (stereo not drawn) [Compound 75, 3-(butylamino)-4-phenoxy-5-[(tetrahydropyran-4-ylamino)sulfonimidoyl]benzoic acid]: the inhibition at 20 µM under setting [2] is 30 to 50%.
As for `CCCCNc1cc(-c2nnn[nH]2)cc(S(=O)(=O)Nc2ccccc2)c1Oc1ccccc1` [Compound 126, 3-(butylamino)-2-phenoxy-N-phenyl-5-(1H-tetrazol-5-yl)benzenesulfonamide], the inhibition at 2 µM under setting [1] lay in the range of 30 to 50%. The inhibition at 20 µM under setting [2] is ≥ 75%.
Take `CCCCNc1cc(C(=O)O)cc(S(=O)(=O)Nc2ccccc2)c1Oc1ccccc1` [Compound 125, 3-(butylamino)-4-phenoxy-5-(phenylsulfamoyl)benzoic acid]: the inhibition at 2 µM under setting [1] is ≥ 75%. The inhibition at 20 µM under setting [2] was ≥ 75%.
In the case of `CCCCNc1cc(C(=O)O)cc(S(=N)(=O)NCCc2ccccc2)c1Oc1ccccc1` (stereo not drawn) [Compound 81, 3-(butylamino)-4-phenoxy-5-[(2-phenylethylamino)sulfonimidoyl]benzoic acid], the inhibition at 2 µM under setting [1] was in the range of 30 to 50%. Also, the inhibition at 20 µM under setting [2] was ≥ 75%.
Taken in the same sequence, the figures for `CCCCNc1cc(-c2nc(=O)o[nH]2)cc(S(=O)(=O)Nc2ccccc2)c1Oc1ccccc1` [Compound 127, 3-(butylamino)-5-(5-oxo-2H-1,2,4-oxadiazol-3-yl)-2-phenoxy-N-phenyl-benzenesulfonamide] were 10 to 30% and 30 to 50%.
`CCCCNc1cc(C(=O)OC)cc(S(=N)(=O)NCCc2nccs2)c1Oc1ccccc1` (stereo not drawn) [Compound 39, methyl 3-(butylamino)-4-phenoxy-5-[(2-thiazol-2-ylethylamino)sulfonimidoyl]benzoate]: the inhibition at 20 µM under setting [2] fell in the range of 10 to 30%.
In the case of `CCCCNc1cc(C(=O)O)cc(S(=N)(=O)NCC2CCOCC2)c1Oc1ccccc1` (stereo not drawn) [Compound 63, 3-(butylamino)-4-phenoxy-5-[(tetrahydropyran-4-ylmethylamino)sulfonimidoyl]benzoic acid], the inhibition at 20 µM under setting [2] fell in the range of 30 to 50%.
For the molecule `CCCCNc1cc(C(=O)O)cc(S(=N)(=O)Nc2ccn(C)n2)c1Oc1ccccc1` (stereo not drawn) [Compound 67, 3-(butylamino)-5-[[(1-methylpyrazol-3-yl)amino]sulfonimidoyl]-4-phenoxy-benzoic acid], the inhibition at 2 µM under setting [1] lay in the range of 50 to 75%. In addition, the inhibition at 20 µM under setting [2] is ≥ 75%.
As for `CCCCNc1cc(C(=O)OC)cc(S(=N)(=O)NCCCC)c1Oc1ccccc1` (stereo not drawn) [Compound 46, methyl 3-(butylamino)-5-(butylaminosulfonimidoyl)-4-phenoxy-benzoate], the inhibition at 2 µM under setting [1] lay in the range of 30 to 50%. For the same molecule, under setting [2], the inhibition at 20 µM is 30 to 50%.
In the case of `CCCCNc1cc(C(=O)O)cc(S(=N)(=O)NCCOC)c1Oc1ccccc1` (stereo not drawn) [Compound 59, 3-(butylamino)-5-[(2-methoxyethylamino)sulfonimidoyl]-4-phenoxy-benzoic acid], the inhibition at 20 µM under setting [2] is 50 to 75%.
Regarding `CCCCNc1cc(C(=O)O)cc(S(=N)(=O)NCc2cncnc2)c1Oc1ccccc1` (stereo not drawn) [Compound 68, 3-(butylamino)-4-phenoxy-5-[(pyrimidin-5-ylmethylamino)sulfonimidoyl]benzoic acid], the inhibition at 2 µM under setting [1] lay in the range of 50 to 75%. Moreover, the inhibition at 20 µM under setting [2] is ≥ 75%.
`CCCCNc1cc(C(=O)OC)cc(S(=N)(=O)Nc2nccn2C)c1Oc1ccccc1` (stereo not drawn) [Compound 40, methyl 3-(butylamino)-5-[[(1-methylimidazol-2-yl)amino]sulfonimidoyl]-4-phenoxy-benzoate]: under setting [2], the inhibition at 20 µM lay in the range of 30 to 50%.
As for `CCCCNc1cc(C(=O)NCCOC)cc(S(=N)(=O)N2Cc3ccccc3C2)c1Oc1ccccc1` (stereo not drawn) [Compound 114, 3-(butylamino)-5-(isoindolin-2-ylsulfonimidoyl)-N-(2-methoxyethyl)-4-phenoxy-benzamide], the inhibition at 2 µM under setting [1] lay in the range of 30 to 50%. Moreover, the inhibition at 20 µM under setting [2] is 10 to 30%.
`CCCCNc1cc(C(=O)NCC(F)(F)F)cc(S(=N)(=O)NCc2cccc(Cl)c2)c1Oc1ccccc1` (stereo not drawn) [Compound 119, 3-(butylamino)-5-[[(3-chlorophenyl)methylamino]sulfonimidoyl]-4-phenoxy-N-(2,2,2-trifluoroethyl)benzamide]: the inhibition at 2 µM under setting [1] lay within 10 to 30%. Under setting [2], the inhibition at 20 µM lay within 10 to 30%.
Regarding `CCCCNc1cc(C(=O)OC)cc(S(=N)(=O)NCc2ccccc2)c1Oc1ccccc1` (stereo not drawn) [Compound 8, methyl 3-[(benzylamino)sulfonimidoyl]-5-(butylamino)-4-phenoxy-benzoate], under setting [1], the inhibition at 2 µM lay in the range of 10 to 30%. The inhibition at 20 µM under setting [2] lay within 50 to 75%.
Taken in the same sequence, the figures for `CCCCNc1cc(C(=O)O)cc(S(=N)(=O)NCCCC)c1Oc1ccccc1` (stereo not drawn) [Compound 94, 3-(butylamino)-5-(butylaminosulfonimidoyl)-4-phenoxy-benzoic acid] were 50 to 75% and ≥ 75%.
